Paper PMC6429214, “Design, Synthesis and Biological Evaluation of Isoxazole-Based CK1 Inhibitors Modified with Chiral Pyrrolidine Scaffolds” (Molecules, 2019)

Key:
Assay in all cases: 33PanQinase panel
Format in all cases: biochemical
[1] = molecular target: T1, MARK2 (Homo sapiens, UniProt Q7KZI7); settings: MARK2, 1 µM; read-out: Residual Activity (%)
T1 construct: purchased ProQinase
Experimental: (§1) Figure 5 Dendrogram representation of the selectivity profile of 29d at a concentration of 1 μM in a panel of 320 wild-type kinases (ProQinase, Freiburg, Germany). The residual kinase activity was determined compared to DMSO control. Images were generated using TREEspot Software Tool, DISCOVERX CORPORATION 2010. […]
(§2) Table S2. Selectivity profile of compound 29d. The inhibitor has been screened at a concentration of 1 µM over a panel of 320 wild-type protein kinases by ProQinase GmbH (Freiburg, Germany) using an activity-based radiometric 33PanQinase® assay. Results are presented as percentage of residual kinase activity relative to […]
(§3) control. The final DMSO concentration was 1 % in each reaction-mix. Classification of protein kinase families refers to Manning et al. (Manning, G.; Whyte, D. B.; Martinez, R.; Hunter, T.; Sudarsanam, S. The Protein Kinase Complement of the Human Genome. Science 2002, 298, 1912–1934): AGC = containing PKA, PKG, PKC families; […] = containing Cdk, MAPK, GSK3, CLK families; STE = homologs of yeast sterile 7, sterile 11, sterile 20 kinases; TK = tyrosine kinase; TKL = tyrosine kinase-like.
(§4) Kinase name Kinase family Residual Activity (%)

[2] = molecular target: T2, VEGF-R1 (Homo sapiens, UniProt P17948); settings: VEGF-R1, 1 µM; read-out: Residual Activity (%)
T2 construct: purchased ProQinase
Experimental: as §1, §2, §3, §4

[3] = molecular target: T3, TGFB-R1 (Homo sapiens, UniProt P36897); settings: TGFB-R1, 1 µM; read-out: Residual Activity (%)
T3 construct: purchased ProQinase
Experimental: as §1, §2, §3, §4

[4] = molecular target: T4, TTBK2 (Homo sapiens, UniProt Q6IQ55); settings: TTBK2, 1 µM; read-out: Residual Activity (%)
T4 construct: purchased ProQinase
Experimental: as §1, §2, §3, §4

[5] = molecular target: T5, p38-gamma (Homo sapiens, UniProt P53778); settings: read-out: Residual Activity (%)
T5 construct: purchased ProQinase
Experimental: as §1, §2, §3, §4

[6] = molecular target: T6, EPHA3 (Homo sapiens, UniProt P29320); settings: EPHA3, 1 µM; read-out: Residual Activity (%)
T6 construct: purchased ProQinase
Experimental: as §1, §2, §3, §4

[7] = molecular target: T7, CDK2/CycE1 (Homo sapiens, UniProt P24941); settings: CDK2/CycE1, 1 µM; read-out: Residual Activity (%)
T7 construct: purchased ProQinase
Experimental: as §1, §2, §3, §4

[8] = molecular target: T8, CDK1/CycA2 (Homo sapiens, UniProt P06493); settings: CDK1/CycA2, 1 µM; read-out: Residual Activity (%)
T8 construct: purchased ProQinase
Experimental: as §1, §2, §3, §4

[9] = molecular target: T9, MKK6 S207D/T211D** (Homo sapiens, UniProt P52564, S207D/T211D); settings: read-out: Residual Activity (%)
T9 construct: purchased ProQinase
Experimental: as §1, §2, §3, §4

[10] = molecular target: T10, RET (Homo sapiens, UniProt P07949); settings: read-out: Residual Activity (%)
T10 construct: purchased ProQinase
Experimental: as §1, §2, §3, §4

[11] = molecular target: T11, BMX (Homo sapiens, UniProt P51813); settings: read-out: Residual Activity (%)
T11 construct: purchased ProQinase
Experimental: as §1, §2, §3, §4

[12] = molecular target: T12, BRK (Homo sapiens, UniProt Q13882); settings: read-out: Residual Activity (%)
T12 construct: purchased ProQinase
Experimental: as §1, §2, §3, §4

[13] = molecular target: T13, CDK6/CycD1 (Homo sapiens, UniProt Q00534); settings: CDK6/CycD1, 1 µM; read-out: Residual Activity (%)
T13 construct: purchased ProQinase
Experimental: as §1, §2, §3, §4

[14] = molecular target: T14, SNARK (Homo sapiens, UniProt Q9H093); settings: read-out: Residual Activity (%)
T14 construct: purchased ProQinase
Experimental: as §1, §2, §3, §4

[15] = molecular target: T15, ACK1 (Homo sapiens, UniProt Q07912); settings: ACK1, 1 µM; read-out: Residual Activity (%)
T15 construct: purchased ProQinase
Experimental: as §1, §2, §3, §4

[16] = molecular target: T16, EPHB4 (Homo sapiens, UniProt P54760); settings: EPHB4, 1 µM; read-out: Residual Activity (%)
T16 construct: purchased ProQinase
Experimental: as §1, §2, §3, §4

[17] = molecular target: T17, Aurora-B (Homo sapiens, UniProt Q96GD4); settings: read-out: Residual Activity (%)
T17 construct: purchased ProQinase
Experimental: as §1, §2, §3, §4

[18] = molecular target: T18, MAPKAPK5 (Homo sapiens, UniProt Q8IW41); settings: MAPKAPK5, 1 µM; read-out: Residual Activity (%)
T18 construct: purchased ProQinase
Experimental: as §1, §2, §3, §4

[19] = molecular target: T19, LTK (Homo sapiens, UniProt P29376); settings: read-out: Residual Activity (%)
T19 construct: purchased ProQinase
Experimental: as §1, §2, §3, §4

[20] = molecular target: T20, DAPK1 (Homo sapiens, UniProt P53355); settings: DAPK1, 1 µM; read-out: Residual Activity (%)
T20 construct: purchased ProQinase
Experimental: as §1, §2, §3, §4

[21] = molecular target: T21, PAK6 (Homo sapiens, UniProt Q9NQU5); settings: PAK6, 1 µM; read-out: Residual Activity (%)
T21 construct: purchased ProQinase
Experimental: as §1, §2, §3, §4

[22] = molecular target: T22, MEK1 (Homo sapiens, UniProt Q02750); settings: MEK1, 1 µM; read-out: Residual Activity (%)
T22 construct: purchased ProQinase
Experimental: as §1, §2, §3, §4

[23] = molecular target: T23, CLK3 (Homo sapiens, UniProt P49761); settings: CLK3, 1 µM; read-out: Residual Activity (%)
T23 construct: purchased ProQinase
Experimental: as §1, §2, §3, §4

[24] = molecular target: T24, LCK (Homo sapiens, UniProt P06239); settings: read-out: Residual Activity (%)
T24 construct: purchased ProQinase
Experimental: as §1, §2, §3, §4

[25] = molecular target: T25, DYRK1B (Homo sapiens, UniProt Q9Y463); settings: read-out: Residual Activity (%)
T25 construct: purchased ProQinase
Experimental: as §1, §2, §3, §4

[26] = molecular target: T26, PDGFR-beta (Homo sapiens, UniProt P09619); settings: read-out: Residual Activity (%)
T26 construct: purchased ProQinase
Experimental: as §1, §2, §3, §4

[27] = molecular target: T27, IRAK1 (Homo sapiens, UniProt P51617); settings: IRAK1, 1 µM; read-out: Residual Activity (%)
T27 construct: purchased ProQinase
Experimental: as §1, §2, §3, §4

[28] = molecular target: T28, PIM1 (Homo sapiens, UniProt P11309); settings: PIM1, 1 µM; read-out: Residual Activity (%)
T28 construct: purchased ProQinase
Experimental: as §1, §2, §3, §4

[29] = molecular target: T29, RIPK2 (Homo sapiens, UniProt O43353); settings: RIPK2, 1 µM; read-out: Residual Activity (%)
T29 construct: purchased ProQinase
Experimental: as §1, §2, §3, §4

T6 sequence (P29320 21-983): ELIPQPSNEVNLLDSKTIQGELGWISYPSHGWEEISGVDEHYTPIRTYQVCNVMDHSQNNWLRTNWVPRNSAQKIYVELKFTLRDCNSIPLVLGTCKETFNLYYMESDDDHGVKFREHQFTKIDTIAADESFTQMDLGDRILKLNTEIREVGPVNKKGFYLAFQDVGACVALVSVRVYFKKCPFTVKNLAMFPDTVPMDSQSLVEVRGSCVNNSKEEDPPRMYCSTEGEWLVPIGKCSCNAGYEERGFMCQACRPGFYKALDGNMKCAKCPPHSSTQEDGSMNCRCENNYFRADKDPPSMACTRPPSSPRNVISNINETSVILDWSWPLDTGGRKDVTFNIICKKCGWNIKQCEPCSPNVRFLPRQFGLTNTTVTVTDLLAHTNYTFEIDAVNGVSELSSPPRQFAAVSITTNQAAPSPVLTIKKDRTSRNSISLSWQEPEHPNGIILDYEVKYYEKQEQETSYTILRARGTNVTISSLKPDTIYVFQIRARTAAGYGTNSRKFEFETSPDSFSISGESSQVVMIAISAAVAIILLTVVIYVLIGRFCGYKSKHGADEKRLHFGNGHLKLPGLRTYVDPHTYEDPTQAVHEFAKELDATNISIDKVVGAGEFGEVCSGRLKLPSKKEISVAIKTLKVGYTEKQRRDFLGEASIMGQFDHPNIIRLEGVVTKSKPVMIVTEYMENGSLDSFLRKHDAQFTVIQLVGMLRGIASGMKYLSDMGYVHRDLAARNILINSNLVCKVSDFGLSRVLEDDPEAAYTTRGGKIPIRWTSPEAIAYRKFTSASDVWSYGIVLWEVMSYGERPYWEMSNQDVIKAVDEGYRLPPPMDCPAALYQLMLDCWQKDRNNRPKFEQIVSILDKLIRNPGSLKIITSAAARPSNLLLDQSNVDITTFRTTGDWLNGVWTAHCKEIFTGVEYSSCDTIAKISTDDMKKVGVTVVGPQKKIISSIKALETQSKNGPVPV
T3 sequence (P36897 34-503): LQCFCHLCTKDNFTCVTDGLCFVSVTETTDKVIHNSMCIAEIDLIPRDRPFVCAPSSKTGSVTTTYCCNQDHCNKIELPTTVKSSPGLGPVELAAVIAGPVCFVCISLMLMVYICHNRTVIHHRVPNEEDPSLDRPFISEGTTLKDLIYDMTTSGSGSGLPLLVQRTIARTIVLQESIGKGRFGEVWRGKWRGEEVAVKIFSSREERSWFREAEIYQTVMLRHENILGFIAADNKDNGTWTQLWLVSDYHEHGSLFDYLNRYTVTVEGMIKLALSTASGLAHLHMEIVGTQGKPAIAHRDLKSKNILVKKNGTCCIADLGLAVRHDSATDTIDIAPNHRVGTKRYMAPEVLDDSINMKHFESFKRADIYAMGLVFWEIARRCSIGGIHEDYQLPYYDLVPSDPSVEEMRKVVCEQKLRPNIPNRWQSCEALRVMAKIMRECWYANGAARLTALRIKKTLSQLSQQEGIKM
T29 sequence (O43353 whole entry): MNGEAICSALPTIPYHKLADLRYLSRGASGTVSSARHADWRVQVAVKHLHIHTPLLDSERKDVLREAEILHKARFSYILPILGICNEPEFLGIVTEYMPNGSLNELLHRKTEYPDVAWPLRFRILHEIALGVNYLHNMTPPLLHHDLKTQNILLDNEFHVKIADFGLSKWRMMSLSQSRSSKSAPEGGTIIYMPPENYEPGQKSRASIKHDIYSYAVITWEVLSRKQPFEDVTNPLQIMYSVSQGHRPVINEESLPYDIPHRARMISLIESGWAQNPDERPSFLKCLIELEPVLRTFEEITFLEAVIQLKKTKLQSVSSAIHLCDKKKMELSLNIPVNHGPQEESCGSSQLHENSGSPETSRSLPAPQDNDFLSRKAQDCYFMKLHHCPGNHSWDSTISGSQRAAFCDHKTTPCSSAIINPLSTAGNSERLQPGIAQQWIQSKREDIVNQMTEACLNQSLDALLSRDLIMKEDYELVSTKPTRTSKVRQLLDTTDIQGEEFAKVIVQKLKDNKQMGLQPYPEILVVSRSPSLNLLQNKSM
T15 sequence (Q07912 whole entry): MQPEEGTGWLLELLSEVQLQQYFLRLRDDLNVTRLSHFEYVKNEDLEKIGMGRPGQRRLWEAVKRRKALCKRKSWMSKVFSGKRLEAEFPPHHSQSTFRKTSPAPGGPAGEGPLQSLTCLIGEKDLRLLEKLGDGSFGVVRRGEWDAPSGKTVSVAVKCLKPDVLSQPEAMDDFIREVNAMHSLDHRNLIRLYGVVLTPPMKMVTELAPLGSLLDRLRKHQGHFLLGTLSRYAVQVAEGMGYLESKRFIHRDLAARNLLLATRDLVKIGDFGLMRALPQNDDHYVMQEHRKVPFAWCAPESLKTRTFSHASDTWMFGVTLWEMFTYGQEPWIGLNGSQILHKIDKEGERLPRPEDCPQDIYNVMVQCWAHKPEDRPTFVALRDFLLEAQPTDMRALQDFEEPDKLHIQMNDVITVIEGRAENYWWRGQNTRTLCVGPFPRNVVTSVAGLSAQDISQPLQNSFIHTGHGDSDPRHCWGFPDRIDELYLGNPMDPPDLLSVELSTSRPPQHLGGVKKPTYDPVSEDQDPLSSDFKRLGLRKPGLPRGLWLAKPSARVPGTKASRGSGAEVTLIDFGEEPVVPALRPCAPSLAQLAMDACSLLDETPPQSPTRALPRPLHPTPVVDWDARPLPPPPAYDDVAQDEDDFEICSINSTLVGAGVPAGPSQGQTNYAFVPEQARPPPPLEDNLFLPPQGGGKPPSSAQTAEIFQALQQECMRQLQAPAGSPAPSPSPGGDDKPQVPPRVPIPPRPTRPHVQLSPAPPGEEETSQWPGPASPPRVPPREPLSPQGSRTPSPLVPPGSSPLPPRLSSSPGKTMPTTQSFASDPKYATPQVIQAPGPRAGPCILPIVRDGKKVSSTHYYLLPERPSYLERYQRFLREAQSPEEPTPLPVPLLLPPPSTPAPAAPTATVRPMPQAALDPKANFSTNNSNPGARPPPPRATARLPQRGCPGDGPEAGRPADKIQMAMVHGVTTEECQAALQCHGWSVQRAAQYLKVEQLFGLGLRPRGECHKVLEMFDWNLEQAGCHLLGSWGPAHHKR
T27 sequence (P51617 whole entry): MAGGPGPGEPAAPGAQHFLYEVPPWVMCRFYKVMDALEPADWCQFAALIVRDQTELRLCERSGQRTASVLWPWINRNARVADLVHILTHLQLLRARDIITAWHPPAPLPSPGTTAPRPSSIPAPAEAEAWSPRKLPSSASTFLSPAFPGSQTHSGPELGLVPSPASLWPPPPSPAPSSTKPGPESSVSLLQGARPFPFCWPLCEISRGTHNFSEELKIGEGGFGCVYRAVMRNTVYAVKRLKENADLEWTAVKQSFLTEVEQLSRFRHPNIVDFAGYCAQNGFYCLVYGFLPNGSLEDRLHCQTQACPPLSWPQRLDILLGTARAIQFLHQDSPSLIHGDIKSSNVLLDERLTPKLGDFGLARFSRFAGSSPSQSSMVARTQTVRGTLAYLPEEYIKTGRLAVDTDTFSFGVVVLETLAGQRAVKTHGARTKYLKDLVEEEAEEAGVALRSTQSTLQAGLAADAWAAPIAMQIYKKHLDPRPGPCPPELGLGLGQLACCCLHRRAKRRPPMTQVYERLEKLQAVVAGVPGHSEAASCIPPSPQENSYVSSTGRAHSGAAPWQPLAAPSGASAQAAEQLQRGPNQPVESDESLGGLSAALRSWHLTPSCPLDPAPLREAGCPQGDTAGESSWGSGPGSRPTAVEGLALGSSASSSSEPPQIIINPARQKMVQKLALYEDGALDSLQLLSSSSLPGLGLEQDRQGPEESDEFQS
T1 sequence (Q7KZI7 whole entry): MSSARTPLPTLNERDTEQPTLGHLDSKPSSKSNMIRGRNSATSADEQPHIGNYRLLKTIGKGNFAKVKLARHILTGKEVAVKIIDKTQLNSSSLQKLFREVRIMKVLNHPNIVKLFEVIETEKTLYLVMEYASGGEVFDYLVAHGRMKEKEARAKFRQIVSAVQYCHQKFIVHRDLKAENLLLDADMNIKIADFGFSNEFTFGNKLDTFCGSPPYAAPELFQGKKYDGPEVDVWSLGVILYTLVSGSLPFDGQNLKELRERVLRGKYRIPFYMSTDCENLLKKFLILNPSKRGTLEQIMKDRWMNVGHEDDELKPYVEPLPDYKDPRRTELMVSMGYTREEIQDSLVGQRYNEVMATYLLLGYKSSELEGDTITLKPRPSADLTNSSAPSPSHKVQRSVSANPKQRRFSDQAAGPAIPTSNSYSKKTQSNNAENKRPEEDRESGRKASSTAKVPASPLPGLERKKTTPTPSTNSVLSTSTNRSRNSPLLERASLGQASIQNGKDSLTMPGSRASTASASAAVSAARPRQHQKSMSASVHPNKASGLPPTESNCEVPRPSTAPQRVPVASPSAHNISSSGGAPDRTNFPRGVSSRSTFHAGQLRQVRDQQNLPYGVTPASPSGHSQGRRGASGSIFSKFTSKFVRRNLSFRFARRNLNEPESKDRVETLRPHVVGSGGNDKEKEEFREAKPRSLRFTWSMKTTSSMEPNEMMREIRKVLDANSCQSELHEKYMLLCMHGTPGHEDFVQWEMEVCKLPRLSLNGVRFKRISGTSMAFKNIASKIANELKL
T23 sequence (P49761 whole entry): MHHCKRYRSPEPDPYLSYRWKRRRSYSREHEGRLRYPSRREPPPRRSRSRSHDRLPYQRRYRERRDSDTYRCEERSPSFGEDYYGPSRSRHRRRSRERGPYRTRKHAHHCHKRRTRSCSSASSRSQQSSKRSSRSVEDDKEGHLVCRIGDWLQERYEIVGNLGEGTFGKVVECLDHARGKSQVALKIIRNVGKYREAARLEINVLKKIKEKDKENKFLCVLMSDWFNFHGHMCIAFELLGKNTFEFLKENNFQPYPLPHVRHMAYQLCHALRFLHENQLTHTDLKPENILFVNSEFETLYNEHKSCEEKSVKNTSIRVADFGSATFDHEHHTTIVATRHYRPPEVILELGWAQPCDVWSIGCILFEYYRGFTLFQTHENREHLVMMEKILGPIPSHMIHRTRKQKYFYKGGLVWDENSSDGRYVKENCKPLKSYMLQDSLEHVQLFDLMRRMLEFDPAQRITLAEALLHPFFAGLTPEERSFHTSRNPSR

Structure (SMILES): COc1ccc(-c2cc(C(=O)Nc3cc(-c4c(-c5ccc(F)cc5)noc4C(C)C)ccn3)n(CC3NCC(O)C3O)c2)cc1 (centres unmarked) [29d]
- remaining activity at 1 µM [1]: 97%
- remaining activity at 1 µM [2]: 119%
- remaining activity at 1 µM [3]: 102%
- remaining activity at 1 µM [4]: 101%
- remaining activity at 1 µM [5]: 99%
- remaining activity at 1 µM [6]: 118%
- remaining activity at 1 µM [7]: 93%
- remaining activity at 1 µM [8]: 102%
- remaining activity at 1 µM [9]: 91%
- remaining activity at 1 µM [10]: 97%
- remaining activity at 1 µM [11]: 96%
- remaining activity at 1 µM [12]: 131%
- remaining activity at 1 µM [13]: 104%
- remaining activity at 1 µM [14]: 123%
- remaining activity at 1 µM [15]: 96%
- remaining activity at 1 µM [16]: 118%
- remaining activity at 1 µM [17]: 96%
- remaining activity at 1 µM [18]: 110%
- remaining activity at 1 µM [19]: 98%
- remaining activity at 1 µM [20]: 101%
- remaining activity at 1 µM [21]: 83%
- remaining activity at 1 µM [22]: 90%
- remaining activity at 1 µM [23]: 92%
- remaining activity at 1 µM [24]: 96%
- remaining activity at 1 µM [25]: 104%
- remaining activity at 1 µM [26]: 91%
- remaining activity at 1 µM [27]: 91%
- remaining activity at 1 µM [28]: 94%
- remaining activity at 1 µM [29]: 108%
